{"source": "patent US7371539B2", "about": "(priority 2003, dated 2008)", "key": {"Tor-His3 reporter": {"tested_on": "Tor-His3 reporter", "assay": "Western assay of reporter degradation in liquid culture after cycloheximide (in vivo)", "type": "cell-based, S. cerevisiae", "conditions": "PS-341 200 μM; Δpdr5 strains Pre10-FPR1 and Rpn10-FPR1", "protocol": "The aforementioned growth assay was a convenient tool for isolating strains to further explore DTL. […] To address this point, degradation of the reporters was directly measured. Strains Pre10-FPR1 and Rpn10-FPR1 were singly transformed with plasmids that expressed hemagglutinin (HA) epitope-tagged versions of Tor-His3 and TorS1972R-His3. The transformants were grown in liquid culture to early log phase, whereupon cycloheximide was added to halt protein translation. Each culture was then split in two and rapamycin was added to one. Samples were collected at various times and whole-cell protein extracts were generated and used for Western analysis (FIGS. 4A-4H). […] These experiments confirm that the growth deficient phenotype seen on histidine-dropout media was due to the degradation of the Tor-His3 reporter and that the 26S proteasome is necessary for this to occur.\nIn both assays, rapamycin was added to a final concentration of 1 μM, cycloheximide was added to a final concentration of 30 ng/ml and PS-341 was added to a final concentration of 200 μM. For liquid cultures, samples were extracted at fixed time intervals (0, 30, 60, 90 minutes) and whole cell extracts were made. 25 μg of total protein was used from each sample, resolved by SDS-PAGE and transferred to PVDF membranes. […]"}, "[1]": {"tested_on": "T1, Tor-His3 with purified 26S proteasomes from strain Rpn10-FPR1", "T1 construct": "made in house; host or cells: reporter: E. coli DH5αPRO (PROTet.133 vector)", "assay": "In vitro degradation assay with purified 26S proteasomes and purified reporter", "type": "biochemical, S. cerevisiae", "conditions": "PS-341 100 μM, rapamycin 1 μM", "from_the_text": "Whole, functional 26S proteasomes have been previously affinity-purified for use in biochemical assays (Leggett et al. (2002) Mol. Cell 10:495). The same procedure was used to isolate proteasomes from strain Rpn10-FPR1. HA epitope-tagged versions of Tor-His3 and TorS1972R-His3 were purified from a bacterial expression system and then mixed with the proteasomes, with or without rapamycin. Samples were extracted at regular intervals and reporter degradation was monitored by Western analysis (FIG. 5A). […] Once again, proteolysis of Tor-His3 could be halted upon the addition of the proteasome inhibitor PS-341.\n26S proteasomes were affinity purified from strains Pre10-FPR1 and Rpn10 FPR1 using the Rpn11-TEV-ProA tag described previously (Leggett et al. (2002) Mol. Cell 10:495). Cells were grown in YPD, harvested, resuspended in 50 mM Tris-HCl [pH 8], 1 mM EDTA and lysed by French press. Lysates was centrifuged at 15,000×g for 25 minutes, filtered and incubated with IgG resin (ICN) for 1 hr at 4° C. Resin was collected in a column, washed with 100 bed volumes of 50 mM Tris-HCl [pH 8], 50 mM NaCl, 1 mM EDTA buffer and equilibrated with TEV-protease buffer (50 mM Tris-HCl [pH 7.5], 1 mM EDTA, 1 mM DTT). […] The integrity of the 26S complexes and presence of Pre10-FPR1 and Rpn10-FPR1 tagged subunits was analyzed by Coomassie staining, SDS-PAGE and immunodetection. […]"}}, "note": "“Also recorded” adds a separate entry of the source.", "data": [{"smiles": "CC(C)C[C@H](NC(=O)[C@H](Cc1ccccc1)NC(=O)c1cnccn1)B(O)O", "note": "[PS-341]", "values": [{"measurement": "effect on degradation of Tor-His3 in the presence of rapamycin", "setting": "Tor-His3 reporter", "result": "prevented Tor-His3 from degrading; also recorded: halted degradation of Tor-His3"}, {"measurement": "effect on proteolysis of Tor-His3 in vitro", "setting": "[1]", "result": "halted"}]}]}
